According to PubChem BioAssay AID256 (DTP/NCI, 2004):
Several values for one entry are separate records, joined by “and”; a condition that tells them apart may be missing. Equal entries are not always repeated. Inconclusive results and toxic doses are left out. How the source made its calls: active means survival T/C of 150% or more; inactive means T/C below 125% in these data.

Tested on: CD2F1 mice, L1210 leukemia ip, survival T/C
Assay: NCI In Vivo Anticancer Drug Screen. Data for tumor model L1210 Leukemia (intraperitoneal) in CD2F1 (CDF1) mice
Conditions: higher = longer survival
Summary of the method: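 Tumor-bearing mice (transplanted tumor) were split into treated and vehicle control groups, and the measured endpoint of each treated group was divided by that of its vehicle controls.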

[1] = endpoint: mean survival time, dose: 100.0 mg/kg/injection, schedule: Q04DX003 (ip), vehicle: saline
[2] = endpoint: mean survival time, dose: 25.0 mg/kg/injection, schedule: Q01DX009 (ip), vehicle: saline with Tween-80
[3] = endpoint: mean survival time, dose: 100.0 mg/kg/injection, schedule: Q01DX009 (ip), vehicle: saline with Tween-80
[4] = endpoint: mean survival time, dose: 200.0 mg/kg/injection, schedule: Q01DX009 (ip), vehicle: saline with Tween-80
[5] = endpoint: mean survival time, dose: 400.0 mg/kg/injection, schedule: Q01DX009 (ip), vehicle: saline with Tween-80
[6] = endpoint: mean survival time, dose: 6.25 mg/kg/injection, schedule: Q01DX009 (ip), vehicle: saline
[7] = endpoint: mean survival time, dose: 12.5 mg/kg/injection, schedule: Q01DX009 (ip), vehicle: saline
[8] = endpoint: mean survival time, dose: 25.0 mg/kg/injection, schedule: Q01DX009 (ip), vehicle: saline
[9] = endpoint: mean survival time, dose: 50.0 mg/kg/injection, schedule: Q01DX009 (ip), vehicle: saline
[10] = endpoint: mean survival time, dose: 50.0 mg/kg/injection, schedule: Q01DX009 (ip), vehicle: Klucel (hydroxypropylcellulose) (HPC)
[11] = endpoint: mean survival time, dose: 100.0 mg/kg/injection, schedule: Q01DX009 (ip), vehicle: Klucel (hydroxypropylcellulose) (HPC)
[12] = endpoint: mean survival time, dose: 100.0 mg/kg/injection, schedule: Q04DX003 (ip), vehicle: Klucel (hydroxypropylcellulose) (HPC)
[13] = endpoint: mean survival time, dose: 200.0 mg/kg/injection, schedule: Q01DX009 (ip), vehicle: Klucel (hydroxypropylcellulose) (HPC)
[14] = endpoint: mean survival time, dose: 200.0 mg/kg/injection, schedule: Q04DX003 (ip), vehicle: Klucel (hydroxypropylcellulose) (HPC)
[15] = endpoint: mean survival time, dose: 400.0 mg/kg/injection, schedule: Q04DX003 (ip), vehicle: Klucel (hydroxypropylcellulose) (HPC)
[16] = endpoint: mean survival time, dose: 100.0 mg/kg/injection, schedule: Q04DX003 (ip), vehicle: saline with Tween-80
[17] = endpoint: mean survival time, dose: 200.0 mg/kg/injection, schedule: Q04DX003 (ip), vehicle: saline with Tween-80
[18] = endpoint: mean survival time, dose: 400.0 mg/kg/injection, schedule: Q04DX003 (ip), vehicle: saline with Tween-80
[19] = endpoint: mean survival time, dose: 100.0 mg/kg/injection, schedule: Q04DX002 (ip), vehicle: saline with Tween-80
[20] = endpoint: mean survival time, dose: 200.0 mg/kg/injection, schedule: Q04DX002 (ip), vehicle: saline with Tween-80
[21] = endpoint: mean survival time, dose: 400.0 mg/kg/injection, schedule: Q04DX002 (ip), vehicle: saline with Tween-80

Measured: T/C

Cc1nc(C(Cl)(Cl)Cl)[nH]c(=O)c1SCCO
inactive: endpoint: median survival time, dose: 25.0 mg/kg/injection, schedule: Q01DX009 (ip), vehicle: distilled water + alcohol 97 % of control and 100 % of control and 102 % of control | endpoint: median survival time, dose: 25.0 mg/kg/injection, schedule: Q01DX009 (sc), vehicle: distilled water + Tween-80 + alcohol 101 % of control | endpoint: median survival time, dose: 50.0 mg/kg/injection, schedule: Q01DX009 (sc), vehicle: distilled water + Tween-80 + alcohol 101 % of control | endpoint: median survival time, dose: 100.0 mg/kg/injection, schedule: Q01DX009 (sc), vehicle: distilled water + Tween-80 + alcohol 101 % of control | endpoint: median survival time, dose: 200.0 mg/kg/injection, schedule: Q01DX009 (sc), vehicle: distilled water + Tween-80 + alcohol 103 % of control

CCC/C=C\CC(C)C(C)CC (centres undefined)
inactive: [1] 101 % of control | endpoint: mean survival time, dose: 200.0 mg/kg/injection, schedule: Q04DX003 (ip), vehicle: saline 108 % of control | endpoint: mean survival time, dose: 400.0 mg/kg/injection, schedule: Q04DX003 (ip), vehicle: saline 104 % of control

CC(=O)NC(Cc1ccc(F)cc1)C(=O)O (centres undefined)
inactive: [2] 95 % of control and 97 % of control | endpoint: mean survival time, dose: 50.0 mg/kg/injection, schedule: Q01DX009 (ip), vehicle: saline with Tween-80 97 % of control and 98 % of control | [3] 95 % of control and 103 % of control | [4] 95 % of control and 101 % of control | [5] 98 % of control and 101 % of control | endpoint: mean survival time, dose: 800.0 mg/kg/injection, schedule: Q01DX009 (ip), vehicle: saline with Tween-80 97 % of control and 105 % of control

CC(=O)/C(N=Nc1ccc(S(=O)(=O)c2ccc(N=N/C(C(C)=O)=C(/C)O)cc2)cc1)=C(\C)O
inactive: [3] 86 % of control | [4] 86 % of control | [5] 102 % of control

NC(=O)c1c(N)sc2c1CCCC2
inactive: endpoint: mean survival time, dose: 6.25 mg/kg/injection, schedule: Q01DX009 (ip), vehicle: saline with Tween-80 96 % of control | endpoint: mean survival time, dose: 6.25 mg/kg/injection, schedule: Q04DX003 (ip), vehicle: saline with Tween-80 107 % of control | endpoint: mean survival time, dose: 12.5 mg/kg/injection, schedule: Q01DX009 (ip), vehicle: saline with Tween-80 93 % of control | endpoint: mean survival time, dose: 12.5 mg/kg/injection, schedule: Q04DX003 (ip), vehicle: saline with Tween-80 102 % of control | [2] 95 % of control | endpoint: mean survival time, dose: 25.0 mg/kg/injection, schedule: Q04DX003 (ip), vehicle: saline with Tween-80 100 % of control

CCCCCCCCP(=O)(N1CC1C)N1CC1C (centres undefined)
inactive: [6] 98 % of control | [7] 94 % of control | [8] 96 % of control | [9] 102 % of control

C1CNCOC1
inactive: [6] 100 % of control | [7] 95 % of control and 97 % of control | [8] 100 % of control and 102 % of control | [9] 101 % of control and 110 % of control | endpoint: mean survival time, dose: 100.0 mg/kg/injection, schedule: Q01DX009 (ip), vehicle: saline 106 % of control and 107 % of control | endpoint: mean survival time, dose: 200.0 mg/kg/injection, schedule: Q01DX009 (ip), vehicle: saline 100 % of control | endpoint: median survival time, dose: 6.25 mg/kg/injection, schedule: Q01DX009 (ip), vehicle: saline 100 % of control | endpoint: median survival time, dose: 12.5 mg/kg/injection, schedule: Q01DX009 (ip), vehicle: saline 102 % of control | endpoint: median survival time, dose: 25.0 mg/kg/injection, schedule: Q01DX009 (ip), vehicle: saline 107 % of control | endpoint: median survival time, dose: 50.0 mg/kg/injection, schedule: Q01DX009 (ip), vehicle: saline 107 % of control | endpoint: median survival time, dose: 100.0 mg/kg/injection, schedule: Q01DX009 (ip), vehicle: saline 112 % of control

COc1ccc(NC(=O)Oc2cccc3ccccc23)c(Cl)c1
inactive: [10] 100 % of control | [11] 100 % of control | [12] 106 % of control | [13] 100 % of control | [14] 106 % of control | [15] 102 % of control

CCC1(O)CC2CN(CCc3c([nH]c4ccccc34)C(C(=O)OC)(c3cc4c(cc3OC)N(C)C3C(O)(C(=O)NCCO)C(O)C5(CC)C=CCN6CCC43C65)C2)C1 (centres undefined)
inactive: endpoint: mean survival time, dose: 0.36 mg/kg/injection, schedule: Q01DX009 (ip), vehicle: water 110 % of control | endpoint: mean survival time, dose: 0.52 mg/kg/injection, schedule: Q04DX003 (ip), vehicle: water 108 % of control | endpoint: mean survival time, dose: 0.86 mg/kg/injection, schedule: Q04DX003 (ip), vehicle: water 119 % of control | endpoint: mean survival time, dose: 1.44 mg/kg/injection, schedule: Q04DX003 (ip), vehicle: water 118 % of control | endpoint: mean survival time, dose: 2.4 mg/kg/injection, schedule: Q04DX003 (ip), vehicle: water 113 % of control

CCOC(=O)C(C)C1(O)CCCCC1 (centres undefined)
inactive: [16] 101 % of control | [17] 101 % of control | [18] 92 % of control

CCOC(=O)C(CCC(O)C#N)(CC(C)=O)C(=O)OCC (centres undefined)
inactive: endpoint: mean survival time, dose: 75.0 mg/kg/injection, schedule: Q01DX001 (ip), vehicle: saline 100 % of control

CC(=O)N(C)c1ccc(C)cc1C
inactive: [3] 93 % of control | [4] 96 % of control | [5] 98 % of control

C=C1C(O)C2(O)OCC34C(CC5C(C)=CC(=O)C(O)C5(C)C23)OC(=O)C(OC(=O)C/C=C(\C)CCCCC)C14 (centres undefined)
inactive: endpoint: median survival time, dose: 1.0 mg/kg/injection, schedule: Q01DX005 (ip), vehicle: saline + alcohol 109 % of control | endpoint: median survival time, dose: 2.0 mg/kg/injection, schedule: Q01DX005 (ip), vehicle: saline + alcohol 118 % of control | endpoint: median survival time, dose: 8.0 mg/kg/injection, schedule: Q01DX005 (ip), vehicle: saline + alcohol 121 % of control

COc1ccc(C(=O)C/C(=N\N(C(=O)c2ccc(OC)cc2)c2ccccc2)c2ccc(OC)cc2)cc1
inactive: [16] 95 % of control | [17] 97 % of control

O=C(COc1ccc(F)cc1)OCCO
inactive: [19] 105 % of control | [20] 101 % of control | [21] 105 % of control

Nc1ccn(CCC(COCc2ccccc2)COCc2ccccc2)c(=O)n1
inactive: [12] 100 % of control | [14] 96 % of control | [15] 96 % of control

CCOC(=O)c1ccc(N)c(C(O)(C(F)(F)F)C(F)(F)F)c1
inactive: [16] 103 % of control | [17] 97 % of control | [18] 97 % of control

COC12[C@@H]3N[C@@H]3CN1C1=C(C(=O)C(N(C)CCN(C)C)=C(C)C1=O)[C@@H]2COC(N)=O (some centres undefined)
inactive: endpoint: median survival time, dose: 3.0 mg/kg/injection, schedule: Q01DX001 (ip), vehicle: saline 104 % of control | endpoint: median survival time, dose: 6.0 mg/kg/injection, schedule: Q01DX001 (ip), vehicle: saline 105 % of control | endpoint: median survival time, dose: 12.0 mg/kg/injection, schedule: Q01DX001 (ip), vehicle: saline 119 % of control and 105 % of control | endpoint: median survival time, dose: 24.0 mg/kg/injection, schedule: Q01DX001 (ip), vehicle: saline 109 % of control

Cc1ccccc1-n1c(O)c(N=Nc2ccccc2)c(=O)n(-c2ccccc2)c1=S
inactive: endpoint: mean survival time, dose: 50.0 mg/kg/injection, schedule: Q04DX003 (ip), vehicle: Klucel (hydroxypropylcellulose) (HPC) 93 % of control | [12] 94 % of control | [14] 104 % of control

ClC(Cl)(Cl)c1ccc(C(SCc2ccccc2)SCc2ccccc2)cc1
inactive: endpoint: mean survival time, dose: 100.0 mg/kg/injection, schedule: Q01DX001 (ip), vehicle: saline with Tween-80 89 % of control | endpoint: mean survival time, dose: 200.0 mg/kg/injection, schedule: Q01DX001 (ip), vehicle: saline with Tween-80 89 % of control | endpoint: mean survival time, dose: 400.0 mg/kg/injection, schedule: Q01DX001 (ip), vehicle: saline with Tween-80 97 % of control

C=CC(N)=O
inactive: [8] 102 % of control | endpoint: mean survival time, dose: 25.0 mg/kg/injection, schedule: Q04DX003 (ip), vehicle: saline 92 % of control | [9] 92 % of control | endpoint: mean survival time, dose: 50.0 mg/kg/injection, schedule: Q04DX003 (ip), vehicle: saline 105 % of control | [1] 97 % of control

O=Nn1c2ccccc2c2ccccc21
inactive: [10] 90 % of control | [11] 98 % of control | [13] 102 % of control

O=C(/C=C/c1ccccc1)Nc1ccccc1Cl
inactive: [19] 105 % of control | [20] 98 % of control | [21] 98 % of control

CCOC(=O)c1cccc2ncccc12
inactive: endpoint: mean survival time, dose: 75.0 mg/kg/injection, schedule: Q04DX003 (ip), vehicle: saline 101 % of control | endpoint: mean survival time, dose: 150.0 mg/kg/injection, schedule: Q04DX003 (ip), vehicle: saline 93 % of control | endpoint: mean survival time, dose: 300.0 mg/kg/injection, schedule: Q04DX003 (ip), vehicle: saline 97 % of control
